Measured values from ChEMBL document CHEMBL4602678, “Identification of Holrhizins E-Q Reveals the Diversity of Nonribosomal Lipopeptides in Paraburkholderia rhizoxinica” (J Nat Prod, 2020).
Where a SMILES comes first, the peptide text is derived from it. The star is where a group is joined. Octanoyl = CCCCCCCC(=O)*; Hexanoyl = CCCCCC(=O)*

Legend:
Escherichia coli = assay: Antimicrobial activity against Escherichia coli ATCC 35218 incubated for 24 hrs by Kirby-Bauer disk diffusion method; format: functional; conditions: ATCC 35218, 24 h
Pseudomonas aeruginosa = assay: Antimicrobial activity against Pseudomonas aeruginosa […] ATCC 27853 incubated for 24 hrs by Kirby-Bauer disk diffusion method; format: functional
Staphylococcus aureus = assay: Antimicrobial activity against Staphylococcus aureus ATCC 29213 incubated for 24 hrs by Kirby-Bauer disk diffusion method; format: functional; conditions: ATCC 29213, 24 h
Bacillus subtilis = assay: Antimicrobial activity against Bacillus subtilis ATCC 6633 incubated for 24 hrs by Kirby-Bauer disk diffusion method; format: functional; conditions: ATCC 6633, 24 h
Candida albicans = assay: Antimicrobial activity against Candida albicans incubated for 24 hrs by Kirby-Bauer disk diffusion method; format: functional
Rhizoctonia solani = assay: Antimicrobial activity against Rhizoctonia solani incubated for 24 hrs by Kirby-Bauer disk diffusion method; format: functional
Aspergillus fumigatus = assay: Antimicrobial activity against Aspergillus fumigatus incubated for 24 hrs by Kirby-Bauer disk diffusion method; format: functional
K562 = assay: Cytotoxicity against human K562 cells incubated for 2 days by MTT assay; format: functional, cell-based; conditions: K562, 48 h
MCF7 = assay: Cytotoxicity against human MCF7 cells incubated for 2 days by MTT assay; format: functional, cell-based; conditions: MCF7, 48 h
MDA-MB-231 = assay: Cytotoxicity against human MDA-MB-231 cells incubated for 2 days by MTT assay; format: functional, cell-based; conditions: MDA-MB-231, 48 h
HepG2 = assay: Cytotoxicity against human HepG2 cells incubated for 2 days by MTT assay; format: functional, cell-based; conditions: HepG2, 48 h
[1] = Cytotoxicity against human 2B cells incubated for 2 days by MTT assay; format: cell-based; conditions: 48 h
A549 = assay: Cytotoxicity against human A549 cells incubated for 2 days by MTT assay; format: functional, cell-based; conditions: A549, 48 h
SGC-7901 = assay: Cytotoxicity against human SGC7901 cells incubated for 2 days by MTT assay; format: functional, cell-based; conditions: SGC-7901, 48 h
HCT-116 = assay: Cytotoxicity against human HCT116 cells incubated for 2 days by MTT assay; format: functional, cell-based; conditions: HCT-116, 48 h
[2] = Cytotoxicity against human Kasumi cells incubated for 2 days by MTT assay; format: functional, cell-based; conditions: 48 h

SMILES	MIC (Escherichia coli)	MIC (Pseudomonas aeruginosa)	MIC (Staphylococcus aureus)	MIC (Bacillus subtilis)	MIC (Candida albicans)	MIC (Rhizoctonia solani)	MIC (Aspergillus fumigatus)	IC50 (K562)	IC50 (MCF7)	IC50 (MDA-MB-231)	IC50 (HepG2)	IC50 [1]	IC50 (A549)	IC50 (SGC-7901)	IC50 (HCT-116)	IC50 [2]
CCCCCC(=O)N[C@H](C(=O)N[C@@H](Cc1ccccc1)C(=O)N[C@@H](CCC(=O)O)C(=O)N[C@@H](CC(C)C)C(=O)N[C@@H](C)C(=O)N[C@@H](CC(C)C)C(=O)O)C(C)C (Hexanoyl-VFELAL-OH)	> 100 µM	> 100 µM	> 100 µM	> 100 µM	> 100 µM	> 100 µM	> 100 µM	> 40 µM	> 40 µM	> 40 µM	> 40 µM	> 40 µM	> 40 µM	> 40 µM	> 40 µM	> 40 µM
CCCCCC(=O)N[C@H](C(=O)N[C@@H](Cc1ccccc1)C(=O)O)C(C)C (Hexanoyl-Val-Phe-OH)	> 100 µM	> 100 µM	> 100 µM	> 100 µM	> 100 µM	> 100 µM	> 100 µM	> 40 µM	> 40 µM	> 40 µM	> 40 µM	> 40 µM	> 40 µM	> 40 µM	> 40 µM	> 40 µM
CCCCCCCC(=O)N[C@H](C(=O)N[C@@H](Cc1ccccc1)C(=O)N[C@@H](CCC(=O)O)C(=O)N[C@H](C(=O)O)[C@@H](C)CC)C(C)C (Octanoyl-VFEI-OH)	> 100 µM	> 100 µM	> 100 µM	> 100 µM	> 100 µM	> 100 µM	> 100 µM	> 40 µM	> 40 µM	> 40 µM	> 40 µM	> 40 µM	> 40 µM	> 40 µM	> 40 µM	> 40 µM
CCCCCCCC(=O)N[C@H](C(=O)N[C@@H](Cc1ccccc1)C(=O)N[C@@H](CCC(=O)O)C(=O)N[C@H](C(=O)N[C@@H](C)C(=O)N[C@@H](CC(C)C)C(=O)O)[C@@H](C)CC)C(C)C (Octanoyl-VFEIAL-OH)	> 100 µM	> 100 µM	> 100 µM	> 100 µM	> 100 µM	> 100 µM	> 100 µM	> 40 µM	> 40 µM	> 40 µM	> 40 µM	> 40 µM	> 40 µM	> 40 µM	> 40 µM	> 40 µM
CCCCCCCC(=O)N[C@H](C(=O)N[C@@H](Cc1ccccc1)C(=O)N[C@@H](CCC(=O)O)C(=O)N[C@H](C(=O)NCC(=O)N[C@H](C(=O)O)[C@@H](C)CC)[C@@H](C)CC)C(C)C (Octanoyl-VFEIGI-OH)	> 100 µM	> 100 µM	> 100 µM	> 100 µM	> 100 µM	> 100 µM	> 100 µM	> 40 µM	> 40 µM	> 40 µM	> 40 µM	> 40 µM	> 40 µM	> 40 µM	> 40 µM	> 40 µM
CCCCCCCC(=O)N[C@H](C(=O)N[C@@H](Cc1ccccc1)C(=O)N[C@@H](CCC(=O)O)C(=O)N[C@@H](CC(C)C)C(=O)O)C(C)C (Octanoyl-VFEL-OH)	> 100 µM	> 100 µM	> 100 µM	> 100 µM	> 100 µM	> 100 µM	> 100 µM	> 40 µM	> 40 µM	> 40 µM	> 40 µM	> 40 µM	> 40 µM	> 40 µM	> 40 µM	> 40 µM
CCCCCCCC(=O)N[C@H](C(=O)N[C@@H](Cc1ccccc1)C(=O)N[C@@H](CCC(=O)O)C(=O)N[C@@H](CC(C)C)C(=O)N[C@@H](C)C(=O)N[C@@H](CC(C)C)C(=O)O)C(C)C (Octanoyl-VFELAL-OH)	> 100 µM	> 100 µM	> 100 µM	> 100 µM	> 100 µM	> 100 µM	> 100 µM	> 40 µM	> 40 µM	> 40 µM	> 40 µM	> 40 µM	> 40 µM	> 40 µM	> 40 µM	> 40 µM
CCCCCCCC(=O)N[C@H](C(=O)N[C@@H](Cc1ccccc1)C(=O)N[C@@H](CCC(=O)O)C(=O)N[C@@H](CC(C)C)C(=O)N[C@@H](C)C(=O)N[C@H](C(=O)O)C(C)C)C(C)C (Octanoyl-VFELAV-OH)	> 100 µM	> 100 µM	> 100 µM	> 100 µM	> 100 µM	> 100 µM	> 100 µM	> 40 µM	> 40 µM	> 40 µM	> 40 µM	> 40 µM	> 40 µM	> 40 µM	> 40 µM	> 40 µM
CCCCCCCC(=O)N[C@H](C(=O)N[C@@H](Cc1ccccc1)C(=O)O)C(C)C (Octanoyl-Val-Phe-OH)	> 100 µM	> 100 µM	> 100 µM	> 100 µM	> 100 µM	> 100 µM	> 100 µM	> 40 µM	> 40 µM	> 40 µM	> 40 µM	> 40 µM	> 40 µM	> 40 µM	> 40 µM	> 40 µM

The next lines start with results.

MIC (Escherichia coli)	MIC (Pseudomonas aeruginosa)	MIC (Staphylococcus aureus)	MIC (Bacillus subtilis)	MIC (Candida albicans)	MIC (Rhizoctonia solani)	MIC (Aspergillus fumigatus)	SMILES	IC50 (K562)	IC50 (MCF7)	IC50 (MDA-MB-231)	IC50 (HepG2)	IC50 [1]	IC50 (A549)	IC50 (SGC-7901)	IC50 (HCT-116)	IC50 [2]
> 100 µM	> 100 µM	> 100 µM	> 100 µM	> 100 µM	> 100 µM	> 100 µM	CCCCCC(=O)N[C@H](C(=O)N[C@@H](Cc1ccccc1)C(=O)N[C@@H](CCC(=O)O)C(=O)N[C@H](C(=O)N[C@@H](C)C(=O)N[C@H](C(=O)O)[C@@H](C)CC)[C@@H](C)CC)C(C)C (Hexanoyl-VFEIAI-OH)	> 40 µM	> 40 µM	> 40 µM	> 40 µM	> 40 µM	> 40 µM	> 40 µM	> 40 µM	> 40 µM
> 100 µM	> 100 µM	> 100 µM	> 100 µM	> 100 µM	> 100 µM	> 100 µM	CCCCCC(=O)N[C@H](C(=O)N[C@@H](Cc1ccccc1)C(=O)N[C@@H](CCC(=O)O)C(=O)N[C@H](C(=O)N[C@@H](C)C(=O)N[C@@H](CC(C)C)C(=O)O)[C@@H](C)CC)C(C)C (Hexanoyl-VFEIAL-OH)	> 40 µM	> 40 µM	> 40 µM	> 40 µM	> 40 µM	> 40 µM	> 40 µM	> 40 µM	> 40 µM
> 100 µM	> 100 µM	> 100 µM	> 100 µM	> 100 µM	> 100 µM	> 100 µM	CCCCCC(=O)N[C@H](C(=O)N[C@@H](Cc1ccccc1)C(=O)N[C@@H](CCC(=O)O)C(=O)N[C@@H](CC(C)C)C(=O)N[C@@H](C)C(=O)N[C@H](C(=O)O)[C@@H](C)CC)C(C)C (Hexanoyl-VFELAI-OH)	> 40 µM	> 40 µM	> 40 µM	> 40 µM	> 40 µM	> 40 µM	> 40 µM	> 40 µM	> 40 µM
> 100 µM	> 100 µM	> 100 µM	> 100 µM	> 100 µM	> 100 µM	> 100 µM	CCCCCCCC(=O)N[C@H](C(=O)N[C@@H](Cc1ccccc1)C(=O)N[C@@H](CCC(=O)O)C(=O)N[C@H](C(=O)N[C@@H](C)C(=O)N[C@H](C(=O)O)[C@@H](C)CC)[C@@H](C)CC)C(C)C (Octanoyl-VFEIAI-OH)	> 40 µM	> 40 µM	> 40 µM	> 40 µM	> 40 µM	> 40 µM	> 40 µM	> 40 µM	> 40 µM
> 100 µM	> 100 µM	> 100 µM	> 100 µM	> 100 µM	> 100 µM	> 100 µM	CCCCCCCC(=O)N[C@H](C(=O)N[C@@H](Cc1ccccc1)C(=O)N[C@@H](CCC(=O)O)C(=O)N[C@H](C(=O)N[C@@H](C)C(=O)N[C@H](C(=O)O)C(C)C)[C@@H](C)CC)C(C)C (Octanoyl-VFEIAV-OH)	> 40 µM	> 40 µM	> 40 µM	> 40 µM	> 40 µM	> 40 µM	> 40 µM	> 40 µM	> 40 µM
> 100 µM	> 100 µM	> 100 µM	> 100 µM	> 100 µM	> 100 µM	> 100 µM	CCCCCCCC(=O)N[C@H](C(=O)N[C@@H](Cc1ccccc1)C(=O)N[C@@H](CCC(=O)O)C(=O)N[C@@H](CC(C)C)C(=O)N[C@@H](C)C(=O)N[C@H](C(=O)O)[C@@H](C)CC)C(C)C (Octanoyl-VFELAI-OH)	> 40 µM	> 40 µM	> 40 µM	> 40 µM	> 40 µM	> 40 µM	> 40 µM	> 40 µM	> 40 µM
